The test system of series [1] is dopaminergic neurons of striatum and Substantia Nigra pars compacta. Nature of the series: MPTP-treated mice, immunohistochemical analysis (tyrosine hydroxylase). To be noted: two weeks of oral treatment. It is filed as in vivo. The procedure:
FIGS. 28A and 28B illustrate immunohistochemical analysis of the brains of mice treated with MPTP. As mentioned above, MPTP causes Parkinson's-like symptoms by destroying dopaminergic neurons in the substantia nigra of the brain. Loss of dopaminergic neurons leads to the loss of the neurotransmitter dopamine and the onset of Parkinson's symptoms. In these tests, tyrosine hydroxylase (TH) levels were measured in the Striatum (St) (FIG. 28A) and TH+ dopaminergic neurons in the Substantia Nigra pars compacta (SNpc) were counted (FIG. 28B) to assess the recovery effect of compound BX treatment from chronic MPTP-induced damage.

Series [2] has as its system identified target proteins. Description: Protein profiling using Mass spectrometry after compound BX treatment. As to conditions: protein amount, preliminary. The source says:
The data presented below in Tables 10-12 illustrate various studies aimed at identifying the targets that compound BX acts upon. Table 10 illustrates preliminary protein profiling data using Mass spectrometry to identify up/down-regulation by compound BX treatment among numerous identified target proteins. In the results shown in Table 10, superoxide dismutase (SOD) protein amount is increased almost two-fold. This is a significant increase in SOD. SOD protein, which is an enzyme that alternately catalyzes the dismutation (or partitioning) of the superoxide (O2^−) radical into either ordinary molecular oxygen (O2) or hydrogen peroxide (H2O2), is strongly associated with amyotrophic lateral sclerosis (ALS). Mutations in the first SOD enzyme (SOD1) can cause familial ALS. Onset of ALS is strongly associated with oxidative stress in the neural tissue of affected individuals.

In series [3] the test system is mRNA levels of potential targets. Description: PCR array using real-time PCR (mRNA levels). To be noted: mRNA level. The source says:
Tables 11 and 12 illustrate PCR array data using real-time PCR to track mRNA levels for various potential targets of compound BX.
For orientation: In qPCR the cycle at which signal appears reflects the starting amount.

In series [4] the test system is mice. Description: MPTP-induced Parkinson's disease model in mice, behavioral assays. It is filed as in vivo, C57/B16 male mice. The procedure: In FIG. 27A-27C, Data are Illustrated Showing the Effect of Oral Treatment of mice for two weeks with compound BX in an MPTP-induced Parkinson's disease model. MPTP (1-methyl-4-phenyl-1,2,3,6-tetrahydropyridine) is a neurotoxin precursor to MPP+, which causes permanent symptoms of Parkinson's disease by destroying dopaminergic neurons in the substantia nigra of the brain. It has been used to study disease models in various animal studies.
In the study, 9 month-old C57/B16 male mice were treated for 7 days of MPTP injection at a rate of 25 mg/kg dose: once a day. Mice in the treatment group were subsequently treated with 14 days of gavage with compound BX at a rate of 50 μg/gram dose: once a day. Treatment was followed with 5 days of behavioral assays
Mice were scored on the number of legs slips per crossing.
Mice tend to groom more often when they are healthy and feeling content.

Another series concerns the target CYP-450 2C9 (Homo sapiens, UniProt P11712). Nature of the series: In vitro human CYP-450 study, 2C9. It is filed as in vitro ADME. As to conditions: human enzyme. The source says: (§1) On the other hand, it is an inhibitor for 2C19, 2D6, 2A6 and 2C9.
The next series addresses CYP-450 2D6 (Homo sapiens, UniProt P10635). Nature of the series: In vitro human CYP-450 study, 2D6. It counts as in vitro ADME. To be noted: human enzyme.
Text: as §1

Series [5] deals with mice. Nature of the series: 6 Hz (minimal clonic seizure) model, mice i.p. It is filed as in vivo. To be noted: Mus musculus, ip; mice, i.p.; read-out: 6 Hz ED50.
A further series concerns rats. Description: Sciatic nerve ligation model in rats. It counts as in vivo. As to conditions: 62 mg/kg, at 0.5 hours. On the procedure: [The response (threshold for foot withdrawal) was measured in grams.]
The next series relates to C3A hepatocyte cells. Nature of the series: ACTIVTox LDH release assay. It is filed as cell-based. On the procedure:
Compounds A, I, H, and F were tested by Stem Cell Innovations, Inc. (Houston, TX) in their ACTIVTox® Human Liver Cell-based assays (using C3A hepatocyte cells). Specifically, the compounds were tested in the LDH release assay, which determines the release of Lactate DeHydrogenase (an indicator of cell death) at various concentrations of test compound.
A concentration of 100 µM of test compound is a much higher level of exposure to liver cells than would ever be expected under physiological conditions. Therefore, using 100 μM as a standard test concentration (for comparative purposes), the ratio of the absorbance (which measures the level of LDH release) resulting from the presence of the test compound versus the negative control is a value known as the “average (or mean) fold control” (Average Fold Control=Average of Absorbance/Average of Negative Control).

For series [6], the system named is mice. Nature of the series: Corneal kindled mouse model. It is filed as in vivo. To be noted: mice i.p.; 50 mg/kg @ 1.0 hr.
The next series deals with kainate (KA) receptors. Description: Electrophysiology, kainate receptor currents. It counts as cell-based. To be noted: at 100 μM, holding potential −70 mV. The text has this:
The mechanisms of action of many currently marketed anticonvulsant drugs are not fully understood. Although numerous molecular targets exist wherein anticonvulsants may exert an effect, the final common pathway appears to be through modulation of voltage-gated and/or neurotransmitter-gated ion channels. Thus, the common link among the various proposed mechanisms involves the ability of an anticonvulsant to modulate ion channel function. Presently, a number of prototype anticonvulsants are thought to exert their action (at least in part) by reducing sustained, high-frequency repetitive firing of action potentials by modulating voltage-dependent sodium (Na+) channels. The effect of promising candidate substances on voltage-gated Na+ channels can be assessed using state-of-the-art electrophysiological techniques.

Each structure is given as a SMILES string.

These results are taken from patent publication US12486218B2, “Compounds advantageous in the treatment of central nervous system diseases and disorders” (AurimMed Pharma, Inc., priority 2008, dated 2025).

One may read the ED50 as the midpoint of the dose-response relation.

Sequence of CYP-450 2C9 (P11712 whole entry): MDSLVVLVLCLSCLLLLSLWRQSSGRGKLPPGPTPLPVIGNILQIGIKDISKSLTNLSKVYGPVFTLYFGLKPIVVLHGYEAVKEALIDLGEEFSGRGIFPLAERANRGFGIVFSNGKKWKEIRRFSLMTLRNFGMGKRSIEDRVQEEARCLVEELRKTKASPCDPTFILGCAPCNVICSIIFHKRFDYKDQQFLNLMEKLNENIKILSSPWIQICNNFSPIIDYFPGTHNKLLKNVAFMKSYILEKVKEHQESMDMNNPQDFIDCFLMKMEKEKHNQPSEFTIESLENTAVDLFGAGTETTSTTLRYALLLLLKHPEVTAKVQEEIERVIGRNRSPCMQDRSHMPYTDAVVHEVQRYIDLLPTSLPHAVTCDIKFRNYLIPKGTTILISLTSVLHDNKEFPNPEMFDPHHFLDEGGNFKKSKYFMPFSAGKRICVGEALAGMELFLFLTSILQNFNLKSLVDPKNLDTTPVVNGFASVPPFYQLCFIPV
Sequence of CYP-450 2D6 (P10635 whole entry): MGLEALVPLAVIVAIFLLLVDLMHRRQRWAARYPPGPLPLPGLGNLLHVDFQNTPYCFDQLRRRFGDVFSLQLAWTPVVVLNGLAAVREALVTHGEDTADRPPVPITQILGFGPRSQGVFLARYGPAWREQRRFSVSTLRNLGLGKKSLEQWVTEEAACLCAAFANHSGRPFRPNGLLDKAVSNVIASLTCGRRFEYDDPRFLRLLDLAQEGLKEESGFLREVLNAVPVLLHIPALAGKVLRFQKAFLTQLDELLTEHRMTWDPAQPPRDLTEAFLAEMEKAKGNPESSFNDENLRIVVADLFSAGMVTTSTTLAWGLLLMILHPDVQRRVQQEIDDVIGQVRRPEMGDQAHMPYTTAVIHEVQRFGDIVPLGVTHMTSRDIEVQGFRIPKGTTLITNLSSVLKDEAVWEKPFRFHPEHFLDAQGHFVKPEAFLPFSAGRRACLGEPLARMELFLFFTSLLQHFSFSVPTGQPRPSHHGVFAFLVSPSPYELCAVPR

Take `C[C@H](CC(N)=O)c1ccc(OC(F)(F)F)cc1` (single isomer, unassigned) [Compound BX, R-(−)-3-(4-Trifluoromethoxy-phenyl)butyramide]: in series [1], the “TH+ dopaminergic neurons in the Substantia Nigra pars compacta” value is listed as “stimulated the regrowth of TH+ dopaminergic neurons” and the “tyrosine hydroxylase (TH) levels in the Striatum” value is given as “induce recovery from MPTP-induced damage in striatum”. Further, in series [2], the “Compound Ratio, 14-3-3 Protein Gamma (P61983)” value was 1.15; the “Compound Ratio, Elongation factor 1-alpha 1 (P62630)” value is given as 0.59; the “Compound Ratio, Eukaryotic translation initiation factor 5A-1 (Q3T1J1)” value was determined as 1.64; the “Compound Ratio, Glycine tRNA ligase (G3V7G8)” value was found to be 0.67. Besides, in series [2], the “Compound Ratio, Heat Shock Protein HSP 90-alpha (P82995)” value amounted to 0.77; the “Compound Ratio, Heat shock 70 kDA protein (F1LRV4)” value came out at 0.73; the “Compound Ratio, Hypoxia up-regulated protein (Q63617)” value was 0.58; the “Compound Ratio, Malate Dehydrogenase (P04636)” value amounted to 0.68. Besides, in [2], the “Compound Ratio, Proteasome subunit alpha type-2 (P17220)” value is 0.35 and the “Compound Ratio, Superoxide dismutase [CU—Zn] (P07632)” value is recorded as 1.72. In addition, in series [3], the “Fold increase, Als2 (Amyotrophic lateral sclerosis 2 homolog)” value is 109.36; the “Fold increase, Atp2b2 (ATPase, Ca++ transporting, plasma membrane 2)” value is given as −5.85; the “Fold increase, Bdnf (Brain-derived neurotrophic factor)” value worked out at 2.58; the “Fold increase, Cat (Catalase)” value is on record as 82.03. Further, in series [3], the “Fold increase, Gclc (Glutamate-cysteine ligase, catalytic subunit)” value is on record as 5.79; the “Fold increase, Htr2a (5-HT (serotonin) receptor 2A)” value is listed as −3.11; the “Fold increase, Ldha (Lactate dehydrogenase A)” value is listed as −9.66; the “Fold increase, Ntrk2 (Neurotrophic tyrosine kinase, receptor, type 2)” value is given as −2.07. In addition, in [3], the “Fold increase, P62630 (Aldehyde oxidase 1)” value stood at 2.1; the “Fold increase, Prdx2 (Peroxiredoxin 2)” value turned out to be 9.66; the “Fold increase, Psmb5 (Proteasome subunit, beta type 5)” value is 3.02; the “Fold increase, Slc6a3 (Solute carrier family 6 (DAT), member 3)” value is −5.59. Moreover, in [3], the “Fold increase, Snca (Alpha-Synuclein)” value is on record as −2.14; the “Fold increase, Syngr3 (Synaptogyrin 3)” value came out at 2.25; the “Fold increase, Syt1 (Synaptotagmin I)” value turned out to be 2.19; the “Fold increase, Ubb (Ubiquitin B)” value turned out to be 3.23. The “Fold increase, Ube2k (Ubiquitin-conjugating enzyme E2K)” value in series [3] is given as 2.98. In addition, in the series with mice [4] (gavage 50 μg/gram once a day for 14 days), the “hindlimb clasping test, abnormal involuntary movement” value was “reduced MPTP-induced abnormal involuntary movement”. In addition, in the series with mice [4] (oral treatment for two weeks), the “coat grooming test, grooming behavior” value is listed as “significantly improved the grooming behavior”; the “crossbeam test, motor coordination / leg slips” value is “significantly improved the motor coordination and reduced the number of leg slips”.
In the case of `CC(CC(N)=O)c1ccc(OC(F)(F)F)cc1` (racemic) [Compound H, 3-[4-(trifluoromethoxy)-phenyl]butyramide], on CYP-450 2C9, the “inhibition of CYP-450 2C9” value is reported as “inhibitor”. Further, at CYP-450 2D6, the “inhibition of CYP-450 2D6” value is “inhibitor”. The ED50 with mice [5] stood at 55 mg/kg. Besides, the allodynic threshold in the series with rats is given as 455 % of the control. Besides, the “LDH release, mean fold control” value in the series on C3A hepatocyte cells (at 100 μM, C3A hepatocyte cells, value below 1.75 = no cyto- or hepatotoxic activity) came to 1.32. Also, in the series with C3A hepatocyte cells (at physiologically relevant concentrations (i.e., <100 µM)), the “cyto- or hepatotoxicity, ACTIVTox data” value was “not cyto- or hepatotoxic”. Also, in the series on mice [6], the “Corneal Kindled, Average seizure score” value was 2: (0, 4, and the “Corneal Kindled, fraction of animals” value is listed as 2/4 @. Also, the “kainate (KA) receptor response” value in the series with kainate (KA) receptors is 99±1 % of control.
